According to patent publication US9079913B2, “Spiro-oxindole MDM2 antagonists” (The Regents of the University of Michigan, priority 2009, dated 2015):
Where two headings read alike, the source gives them in different places.

Columns and labels:
[1] = test system: Isogenic HCT-116 colon cancer cell lines; assay: cells; format: cell-based; conditions: Homo sapiens;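 note: cells grown in 96-well plates in McCoy's 5A medium with 10% FBS, exposed to compound for 4 days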
Experimental: Cells were seeded in 96-well flat bottom cell culture plates at a density of 2−3×10^3 cells/well with compounds and incubated for 4 days.

[2] = test system: cancer cell lines with wild-type p53 / mutated or deleted p53 (ATCC); assay: Cell growth assay (WST-8), other cancer cell lines; format: cell-based
[3] = In vitro microsomal stability, rat; format: in vitro ADME
[4] = HCT-116, read-out: HCT-116 (p53-/-) IC50, Table 19A, HCT-116 p53-/-, cell growth
[5] = HCT-116, read-out: HCT-116 (p53 wild-type) IC50, Table 19A, HCT-116 p53 wild-type, cell growth
[6] = Homo sapiens, LNCaP, Table 19A, LNCAP cells, p53 wild-type, cell growth, read-out: LNCAP (p53 wild-type) IC50
[7] = Homo sapiens, PC-3, Table 19A, PC-3 cells, deleted p53, cell growth, read-out: PC-3 (deleted p53) IC50
[8] = Homo sapiens, SJSA-1, Table 19A, SJSA-1 cells, p53 wild-type, cell growth, read-out: SJSA-1 (p53 wild-type) IC50
[9] = Homo sapiens, LNCaP, read-out: LNCAP (p53 wild-type) IC50
[10] = Homo sapiens, SJSA-1, read-out: SJSA-1 (p53 wild-type) IC50
[11] = HCT-116, read-out: HCT-116 (p53 wild-type) IC50
[12] = Homo sapiens, PC-3, read-out: PC-3 (deleted p53) IC50

SMILES | IC50 [1, 4] [nM] | IC50 [1, 5] [nM] | IC50 [2, 6] [nM] | IC50 [2, 7] [nM] | IC50 [2, 8] [nM] | IC50 [2, 9] [nM] | further results
CC(C)(C)C[C@H]1N[C@@H](C(=O)NCCCNS(C)(=O)=O)[C@H](c2cccc(Cl)c2F)[C@@]12C(=O)Nc1cc(Cl)c(F)cc12 [MI-768] | 9800 ± 400 | 500 ± 200 | 700 ± 200 | 7300 ± 800 | 800 ± 100 | – | –
CC(C)(C)C[C@H]1N[C@@H](C(=O)NCCCN2CCN(C3CC3)CC2)[C@H](c2cccc(Cl)c2F)[C@@]12C(=O)Nc1cc(Cl)ccc12 [MI-519-48] | – | – | – | – | – | – | % of compound remaining when incubated in rat liver microsomes ([3]; Table 17, 0 min): 100%; % of compound remaining when incubated in rat liver microsomes ([3]; Table 17, 4 min): 79.8%; % of compound remaining when incubated in rat liver microsomes ([3]; Table 17, 6 min): 64.8%; % of compound remaining when incubated in rat liver microsomes ([3]; Table 17, 10 min): 48.5%; % of compound remaining when incubated in rat liver microsomes ([3]; Table 17, 15 min): 45.2%; % of compound remaining when incubated in rat liver microsomes ([3]; Table 17, 30 min): 43.7%
CC(C)(C)C[C@H]1N[C@@H](C(=O)N[C@H]2C[C@](C)(O)C2)[C@H](c2cccc(Cl)c2F)[C@@]12C(=O)Nc1cc(Cl)ccc12 [MI-519-65] | – | – | – | – | – | < 3000 | cell growth inhibition (in words) [2]: effectively inhibit cancer cell growth; IC50 [2, 10]: < 3000 nM
CN1[C@@H](C(=O)NCCN2CCOCC2)[C@H](c2cccc(Cl)c2F)[C@@]2(C(=O)Nc3cc(F)c(F)cc32)[C@H]1CC(C)(C)C [MI-722] | – | – | – | – | – | – | IC50 ([1]; HCT-116, read-out: Inhibition of cell growth IC50, HCT116 p53 KO, Table 19B, HCT116 p53 KO): > 100000 nM; IC50 ([1]; HCT-116, read-out: Inhibition of cell growth IC50, HCT116 p53 WT, Table 19B, HCT116 p53 WT): > 100000 nM; IC50 ([2]; Homo sapiens, LNCaP, Table 19B, LNCaP cells, read-out: Inhibition of cell growth IC50, LNCaP): > 100000 nM; IC50 ([2]; Homo sapiens, PC-3, Table 19B, PC3 cells, read-out: Inhibition of cell growth IC50, PC3): > 100000 nM
CC(C)(C)C[C@@H]1N[C@@H](C(=O)N[C@H]2C[C@@](C)(O)C2)[C@H](c2cccc(Cl)c2F)[C@]12C(=O)Nc1cc(Cl)ccc12 [MI-519-6401] | – | – | – | – | – | 300 | IC50 [1, 11]: 100 nM; IC50 [2, 12]: 10500 nM; IC50 [2, 10]: 400 nM
CC(C)(C)C[C@H]1N[C@@H](C(=O)NCCNS(C)(=O)=O)[C@H](c2cccc(Cl)c2F)[C@@]12C(=O)Nc1cc(Cl)c(F)cc12 [MI-769] | 10200 | 1600 | 1500 | 13000 | 600 | – | –
CC(C)(C)C[C@H]1N[C@@H](C(=O)NCCCCN2CCCC2)[C@H](c2cccc(Cl)c2F)[C@@]12C(=O)Nc1cc(Cl)c(F)cc12 [MI-765] | 4700 ± 2000 | 1100 ± 200 | 1500 ± 900 | 2600 ± 200 | 1400 ± 100 | – | –
CC(C)(C)C[C@H]1N[C@@H](C(=O)NC2CCC(O)CC2)[C@H](c2cccc(Cl)c2F)[C@@]12C(=O)Nc1cc(F)c(F)cc12 (stereo partly drawn) [MI-7104] | – | – | – | – | – | – | IC50 ([2]; read-out: LNCAP (p53 wild-type) IC50): < 3000 nM; IC50 ([2]; read-out: PC-3 (deleted p53) IC50): > 10000 nM; IC50 ([2]; read-out: SJSA-1 (p53 wild-type) IC50): < 3000 nM
CC(C)(C)C[C@H]1N[C@@H](C(=O)N[C@H]2C[C@H](NS(C)(=O)=O)C2)[C@H](c2cccc(Cl)c2F)[C@@]12C(=O)Nc1cc(Cl)ccc12 [MI-519-61] | – | – | – | – | – | < 3000 | IC50 [1, 11]: < 3000 nM; IC50 [2, 10]: < 3000 nM
CNCC(=O)N1CCN(C(=O)[C@@H]2N[C@H](CC(C)(C)C)[C@]3(C(=O)Nc4cc(Cl)c(F)cc43)[C@H]2c2cccc(Cl)c2)CC1 [MI-747] | 3900 | 1300 | 1300 | 3700 | – | – | –
CC(C)(C)C[C@H]1N[C@@H](C(=O)N[C@H]2CC[C@H](O)C2)[C@H](c2cccc(Cl)c2F)[C@@]12C(=O)Nc1cc(Cl)ccc12 [MI-519-51-epi] | – | – | – | – | – | < 2000 | IC50 [2, 12]: > 10000 nM
CC(C)(C)C[C@H]1N[C@@H](C(=O)NCC[C@H]2CC[C@H](N)C2)[C@H](c2cccc(Cl)c2F)[C@@]12C(=O)Nc1cc(Cl)c(F)cc12 [MI-767] | 2400 ± 1000 | 700 ± 200 | 900 ± 200 | 2200 ± 100 | 900 ± 600 | – | –
CC(C)(C)C[C@H]1N[C@@H](C(=O)NC2CC(=O)C2)[C@H](c2cccc(Cl)c2F)[C@@]12C(=O)Nc1cc(Cl)ccc12 [MI-519-70] | > 10000 | < 5000 | < 5000 | > 10000 | < 5000 | – | –
